Assay results reported in patent publication US12479843B2, “Spiro ring-containing quinazoline compounds” (WIGEN BIOMEDICINE TECHNOLOGY (SHANGHAI) CO., LTD., priority 2019, dated 2025).

Legend:
[1] = system: pERK level in H358 cells; assay: pERK and ERK protein content assay in H358 cells (ELISA); format: cell-based; details: Homo sapiens, NCI-H358, compound 1 μM, 24 h, pERK/ERK ratio compared with DMSO group, read-out: Inhibition rate (%) of pERK level
Outline: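 Percent inhibition of pERK relative to DMSO, from the ELISA pERK/ERK ratio in lysed H358 cells. Compound applied at 1 μM for 24 h after one day of growth.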

[2] = system: H358 cells; assay: Antiproliferative activity against H358 cells (Cell Titer Glow, ultra-low attachment plate); format: cell-based; details: Homo sapiens, NCI-H358, 72 h, 96-well ultra-low attachment plate, three days after addition of compound, Cell Titer Glow
Method: 2500 H358 cells were seeded in a 96-well ultra-low attachment plate (corning, 7007). After one day of growth, a serially diluted compound (a maximum concentration of 5 μM, 5-fold dilution, a total of five doses) was added. Three days after the addition of the compound, Cell Titer Glow (Promega, G9681) was added to evaluate pellet growth, and the IC50 value was calculated.

Compound: C=C(F)C(=O)N1CC2(CCN(c3nc(OC4CC5(CCN(CCOC)CC5)C4)nc4c(OCC(F)(F)F)c(-c5c(C)ccc6[nH]ncc56)c(C5CC5)cc34)CC2)C1 [Compound 132]
- inhibition at 1 µM [1]: > 90%
- IC50 [2]: < 300 nM

Compound: C=CC(=O)N1CC2(CCN(c3nc(OC4CC5(CCN(C6COC6)CC5)C4)nc4c(OCC(F)(F)F)c(-c5c(C)ccc6[nH]ncc56)c(C5CC5)cc34)CC2)C1 [Compound 133]
- inhibition at 1 µM [1]: > 90%
- IC50 [2]: < 300 nM

Compound: C=C(F)C(=O)N1CC2(CCN(c3nc(OC4CC5(CCN(C(C)CC)CC5)C4)nc4c(OCC(F)(F)F)c(-c5c(C)ccc6[nH]ncc56)c(C5CC5)cc34)CC2)C1 (centres unmarked) [Compound 134]
- inhibition at 1 µM [1]: > 90%
- IC50 [2]: < 300 nM

Compound: C=CC(=O)N1CC2(CCN(c3nc(OC4CCC5(CC4)CN(C)C5)nc4c(OCC(F)(F)F)c(-c5c(C)ccc6[nH]ncc56)c(C5CC5)cc34)CC2)C1 [Compound 135]
- inhibition at 1 µM [1]: 50 to 90%
- IC50 [2]: 300 to 1000 nM

Compound: C=C(F)C(=O)N1CC2(CCN(c3nc(OC4CCC5(CC4)CN(C)C5)nc4c(OCC(F)(F)F)c(-c5c(C)ccc6[nH]ncc56)c(C5CC5)cc34)CC2)C1 [Compound 136]
- inhibition at 1 µM [1]: 50 to 90%
- IC50 [2]: 300 to 1000 nM

Compound: C=CC(=O)N1CC2(CCN(c3nc(OC4CCC5(CC4)CN(CCOC)C5)nc4c(OCC(F)(F)F)c(-c5c(C)ccc6[nH]ncc56)c(C5CC5)cc34)CC2)C1 [Compound 137]
- inhibition at 1 µM [1]: > 90%
- IC50 [2]: < 300 nM

Compound: C=C(F)C(=O)N1CC2(CCN(c3nc(OC4CCC5(CC4)CN(CCOC)C5)nc4c(OCC(F)(F)F)c(-c5c(C)ccc6[nH]ncc56)c(C5CC5)cc34)CC2)C1 [Compound 138]
- inhibition at 1 µM [1]: > 90%
- IC50 [2]: < 300 nM

Compound: C=C(F)C(=O)N1CC2(CCN(c3nc(N4CC(N(C)C)C4)nc4c(OCC(F)(F)F)c(-c5c(C)ccc6[nH]ncc56)c(C5CC5)cc34)CC2)C1 [Compound 139]
- inhibition at 1 µM [1]: > 90%
- IC50 [2]: < 300 nM

Compound: C=CC(=O)N1CC2(CCN(c3nc(N4CC(N(C)CCOC)C4)nc4c(OCC(F)(F)F)c(-c5c(C)ccc6[nH]ncc56)c(C5CC5)cc34)CC2)C1 [Compound 140]
- inhibition at 1 µM [1]: > 90%
- IC50 [2]: < 300 nM

Compound: C=C(F)C(=O)N1CC2(CCN(c3nc(N4CC(N(C)CCOC)C4)nc4c(OCC(F)(F)F)c(-c5c(C)ccc6[nH]ncc56)c(C5CC5)cc34)CC2)C1 [Compound 141]
- inhibition at 1 µM [1]: > 90%
- IC50 [2]: < 300 nM

Compound: C=C(F)C(=O)N1CC2(CCN(c3nc(N4CC(N5CCC5)C4)nc4c(OCC(F)(F)F)c(-c5c(C)ccc6[nH]ncc56)c(C5CC5)cc34)CC2)C1 [Compound 143]
- inhibition at 1 µM [1]: > 90%
- IC50 [2]: < 300 nM

Compound: C=CC(=O)N1CC2(CCN(c3nc(N4CC(N5CC(OC)C5)C4)nc4c(OCC(F)(F)F)c(-c5c(C)ccc6[nH]ncc56)c(C5CC5)cc34)CC2)C1 [Compound 144]
- inhibition at 1 µM [1]: > 90%
- IC50 [2]: < 300 nM

Compound: C=C(F)C(=O)N1CC2(CCN(c3nc(N4CC(N5CC(OC)C5)C4)nc4c(OCC(F)(F)F)c(-c5c(C)ccc6[nH]ncc56)c(C5CC5)cc34)CC2)C1 [Compound 145]
- inhibition at 1 µM [1]: > 90%
- IC50 [2]: < 300 nM

Compound: C=CC(=O)N1CC2(CCN(c3nc(N4CC(N5CCOCC5)C4)nc4c(OCC(F)(F)F)c(-c5c(C)ccc6[nH]ncc56)c(C5CC5)cc34)CC2)C1 [Compound 146]
- inhibition at 1 µM [1]: > 90%
- IC50 [2]: < 300 nM

Compound: C=C(F)C(=O)N1CC2(CCN(c3nc(N4CC(N5CCOCC5)C4)nc4c(OCC(F)(F)F)c(-c5c(C)ccc6[nH]ncc56)c(C5CC5)cc34)CC2)C1 [Compound 147]
- inhibition at 1 µM [1]: > 90%
- IC50 [2]: < 300 nM

Compound: C=CC(=O)N1CC2(CCN(c3nc(N4CCC(N5CCOCC5)CC4)nc4c(OCC(F)(F)F)c(-c5c(C)ccc6[nH]ncc56)c(C5CC5)cc34)CC2)C1 [Compound 148]
- inhibition at 1 µM [1]: 50 to 90%
- IC50 [2]: 300 to 1000 nM

Compound: C=C(F)C(=O)N1CC2(CCN(c3nc(N4CCC(N5CCOCC5)CC4)nc4c(OCC(F)(F)F)c(-c5c(C)ccc6[nH]ncc56)c(C5CC5)cc34)CC2)C1 [Compound 149]
- inhibition at 1 µM [1]: 50 to 90%
- IC50 [2]: 300 to 1000 nM

Compound: C=CC(=O)N1CC2(CCN(c3nc(OC4CN5CCC4CC5)nc4c(OCC(F)(F)F)c(-c5c(C)ccc6[nH]ncc56)c(C5CC5)cc34)CC2)C1 (centres unmarked) [Compound 150]
- inhibition at 1 µM [1]: > 90%
- IC50 [2]: < 300 nM

Compound: C=C(F)C(=O)N1CC2(CCN(c3nc(OC4CN5CCC4CC5)nc4c(OCC(F)(F)F)c(-c5c(C)ccc6[nH]ncc56)c(C5CC5)cc34)CC2)C1 (centres unmarked) [Compound 151]
- inhibition at 1 µM [1]: > 90%
- IC50 [2]: 300 to 1000 nM

Compound: C=CC(=O)N1CC2(CCN(c3nc(N4CCN(C5COC5)CC4)nc4c(OCC(F)(F)F)c(-c5c(C)ccc6[nH]ncc56)c(C5CC5)cc34)CC2)C1 [Compound 152]
- inhibition at 1 µM [1]: > 90%
- IC50 [2]: < 300 nM

Compound: C=C(F)C(=O)N1CC2(CCN(c3nc(N4CCN(C5COC5)CC4)nc4c(OCC(F)(F)F)c(-c5c(C)ccc6[nH]ncc56)c(C5CC5)cc34)CC2)C1 [Compound 153]
- inhibition at 1 µM [1]: > 90%
- IC50 [2]: < 300 nM

Compound: C=CC(=O)N1CC2(CCN(c3nc(N4CCN(C5CCOCC5)CC4)nc4c(OCC(F)(F)F)c(-c5c(C)ccc6[nH]ncc56)c(C5CC5)cc34)CC2)C1 [Compound 154]
- inhibition at 1 µM [1]: > 90%
- IC50 [2]: < 300 nM

Compound: C=C(F)C(=O)N1CC2(CCN(c3nc(N4CCN(C5CCOCC5)CC4)nc4c(OCC(F)(F)F)c(-c5c(C)ccc6[nH]ncc56)c(C5CC5)cc34)CC2)C1 [Compound 155]
- inhibition at 1 µM [1]: 50 to 90%
- IC50 [2]: 300 to 1000 nM

Compound: C=CC(=O)N1CC2(CCN(c3nc(N4CC5(CCOCC5)C4)nc4c(OCC(F)(F)F)c(-c5c(C)ccc6[nH]ncc56)c(C5CC5)cc34)CC2)C1 [Compound 156]
- inhibition at 1 µM [1]: > 90%
- IC50 [2]: < 300 nM

Compound: C=CC(=O)N1CC2(CCN(c3nc(N4CC5(CN(CC6CC6)C5)C4)nc4c(OCC(F)(F)F)c(-c5c(C)ccc6[nH]ncc56)c(C5CC5)cc34)CC2)C1 [Compound 157]
- inhibition at 1 µM [1]: > 90%
- IC50 [2]: < 300 nM

Compound: C=CC(=O)N1CC2(CCN(c3nc(N4CC5(C4)CN(C4COC4)C5)nc4c(OCC(F)(F)F)c(-c5c(C)ccc6[nH]ncc56)c(C5CC5)cc34)CC2)C1 [Compound 158]
- inhibition at 1 µM [1]: > 90%
- IC50 [2]: < 300 nM

Compound: C=CC(=O)N1CC2(CCN(c3nc(N4CCC5(CCN(C)C5)C4)nc4c(OCC(F)(F)F)c(-c5c(C)ccc6[nH]ncc56)c(C5CC5)cc34)CC2)C1 (centres unmarked) [Compound 159]
- inhibition at 1 µM [1]: > 90%
- IC50 [2]: < 300 nM

Compound: C=CC(=O)N1CC2(CCN(c3nc(N4CCC5(CCN(CCOC)C5)C4)nc4c(OCC(F)(F)F)c(-c5c(C)ccc6[nH]ncc56)c(C5CC5)cc34)CC2)C1 (centres unmarked) [Compound 160]
- inhibition at 1 µM [1]: > 90%
- IC50 [2]: < 300 nM

Compound: C=CC(=O)N1CC2(CCN(c3nc(N4CCC5(CCN(C)CC5)C4)nc4c(OCC(F)(F)F)c(-c5c(C)ccc6[nH]ncc56)c(C5CC5)cc34)CC2)C1 [Compound 161]
- inhibition at 1 µM [1]: > 90%
- IC50 [2]: < 300 nM

Compound: C=CC(=O)N1CC2(CCN(c3nc(N4CCC5(CC4)CC(N)C5)nc4c(OCC(F)(F)F)c(-c5c(C)ccc6[nH]ncc56)c(C5CC5)cc34)CC2)C1 [Compound 162]
- inhibition at 1 µM [1]: > 90%
- IC50 [2]: < 300 nM

Compound: C=CC(=O)N1CC2(CCN(c3nc(N4CCC5(CCN(C)C5)CC4)nc4c(OCC(F)(F)F)c(-c5c(C)ccc6[nH]ncc56)c(C5CC5)cc34)CC2)C1 [Compound 163]
- inhibition at 1 µM [1]: > 90%
- IC50 [2]: < 300 nM

Compound: C=CC(=O)N1CC2(CCN(c3nc(N4CCC5(CCN(C)CC5)CC4)nc4c(OCC(F)(F)F)c(-c5c(C)ccc6[nH]ncc56)c(C5CC5)cc34)CC2)C1 [Compound 164]
- inhibition at 1 µM [1]: > 90%
- IC50 [2]: < 300 nM

Compound: C=CC(=O)N1CC2(CCN(c3nc(N4CC(N(C)CC)C4)nc4c(OCC(F)(F)F)c(-c5c(C)ccc6[nH]ncc56)c(C5CC5)cc34)CC2)C1 [Compound 165]
- inhibition at 1 µM [1]: > 90%
- IC50 [2]: < 300 nM

Compound: C=CC(=O)N1CC2(CCN(c3nc(N4CC(N(CC)CC)C4)nc4c(OCC(F)(F)F)c(-c5c(C)ccc6[nH]ncc56)c(C5CC5)cc34)CC2)C1 [Compound 166]
- inhibition at 1 µM [1]: > 90%
- IC50 [2]: < 300 nM

Compound: C=CC(=O)N1CC2(CCN(c3nc(N4CC(N(C)CC(F)(F)F)C4)nc4c(OCC(F)(F)F)c(-c5c(C)ccc6[nH]ncc56)c(C5CC5)cc34)CC2)C1 [Compound 167]
- inhibition at 1 µM [1]: > 90%
- IC50 [2]: 300 to 1000 nM

Compound: C=CC(=O)N1CC2(CCN(c3nc(N4CC(N5CC(F)C5)C4)nc4c(OCC(F)(F)F)c(-c5c(C)ccc6[nH]ncc56)c(C5CC5)cc34)CC2)C1 [Compound 168]
- inhibition at 1 µM [1]: > 90%
- IC50 [2]: < 300 nM

Compound: C=CC(=O)N1CC2(CCN(c3nc(N4CC(N5CC(F)(F)C5)C4)nc4c(OCC(F)(F)F)c(-c5c(C)ccc6[nH]ncc56)c(C5CC5)cc34)CC2)C1 [Compound 169]
- inhibition at 1 µM [1]: 50 to 90%
- IC50 [2]: 300 to 1000 nM
